Measurements published in EP4104818A1, “OPHTHALMIC COMPOSITION COMPRISING XANTHOHUMOL” (Skeye Pharma GbR, priority 2021, dated 2022).

Assays:
[1] = system: human corneal epithelial cells; assay: cells; format: cell-based; conditions: Corneal epithelial cell, 24 h, read-out: cell viability
Procedure: Human corneal epithelial cells (hCEC; SCCE016; Merck Millipore, Burlington, MA, USA) were cultured in corneal epithelial cell growth medium with supplement mix (LGC Standards, Teddington, United Kingdom). Approximately 10,000 hCECs were seeded onto each well of a 96-well cell-culture dishes (NUNC, Langenselbold, Germany). Confluent cells were used for Water-soluble tetrazolium salt (WST-1) cell proliferation assays (Hoffmann-La Roche AG, Basel, Switzerland). After 24 hours of incubation with 100 µl of corneal epithelial cell growth medium without its supplement mix (LGC Standards, Teddington, United Kingdom), hCECs were treated with different concentrations of xanthohumol (XH; Selleckchem, Houston, TX, USA) dissolved in dimethyl sulfoxide (DMSO; Carl Roth AG, Karlsruhe, Germany). Control groups were treated with DMSO only. Following another 72 hours of incubation, the cells were incubated with the WST-1 solution for 30 minutes. Substrate turnover was measured with an ELISA reader at 450 nm (Spectramax 190; Molecular Devices, Sunnyvale, CA, USA) and a reference at 690 nm. To determine potential anti-oxidative effects of xanthohumol, hCECs were incubated and treated analogous to the above-mentioned WST-1 cell proliferation assay with minor modifications. […] Following another incubation of the hCECs for 24 hours, the WST-1 assay was further finalized according to the description above.

[2] = system: Intracellular, mitochondrial reactive oxygen species (ROS); assay: Dihydrorhodamine-123 (DHR-123) assay of intracellular ROS; format: cell-based; conditions: Homo sapiens, HCEC, 2 hours
Procedure: Intracellular, mitochondrial reactive oxygen species (ROS) were assessed using the cell membrane permeable dihydrorhodamine-123 (DHR-123) assay (D23806; ThermoFisher Scientific, Waltham, MA, USA) according to the manufacturer's instructions. Measurements were made after exposing human corneal epithelial cells to H2O2, xanthohumol or DMSO only for 2 hours. For ROS staining, cells were incubated with 10 µM DHR-123 for 15 minutes. Nucleus staining was performed using Hoechst 33342 nucleic acid stain (H1399; ThermoFisher Scientific, Waltham, MA, USA). Randomly, a minimum of 3 images of every treatment group were acquired with a 20x fluorescence objective using the aforementioned Axio Observer 7. Results were expressed in percent of fluorescence intensity relative to the baseline measurement in the DMSO control group. For quantification of the fluorescence signals, the microscope software ZEN 3.0 (Carl Zeiss AG, Jena, Germany) was used.

[3] = system: Human corneal epithelial cells (hCEC); assay: WST-1 cell viability assay; format: cell-based; conditions: 72 hours of incubation, hCECs, compared to the DMSO-treated control group
Procedure: Human corneal epithelial cells (hCEC; SCCE016; Merck Millipore, Burlington, MA, USA) were cultured in corneal epithelial cell growth medium with supplement mix (LGC Standards, Teddington, United Kingdom). Approximately 10,000 hCECs were seeded onto each well of a 96-well cell-culture dishes (NUNC, Langenselbold, Germany). Confluent cells were used for Water-soluble tetrazolium salt (WST-1) cell proliferation assays (Hoffmann-La Roche AG, Basel, Switzerland). After 24 hours of incubation with 100 µl of corneal epithelial cell growth medium without its supplement mix (LGC Standards, Teddington, United Kingdom), hCECs were treated with different concentrations of xanthohumol (XH; Selleckchem, Houston, TX, USA) dissolved in dimethyl sulfoxide (DMSO; Carl Roth AG, Karlsruhe, Germany). Control groups were treated with DMSO only. Following another 72 hours of incubation, the cells were incubated with the WST-1 solution for 30 minutes. Substrate turnover was measured with an ELISA reader at 450 nm (Spectramax 190; Molecular Devices, Sunnyvale, CA, USA) and a reference at 690 nm.

hCEC [4] = assay: BrdU cell proliferation ELISA; format: cell-based; conditions: Homo sapiens, 24 hours, hCECs, no significant change
Procedure: Proliferation of hCEC was determined using a 5-bromo-2'-deoxyuridine (BrdU) ELISA in accordance with the manufacturers' recommendations (Merck KGaA, Darmstadt, Germany). In brief, approximately 7,000 cells were seeded onto a 96-well cell culture plat e and incubated for 24h to achieve complete adherence of the cells. After 24 hours of incubation with 100 µl of corneal epithelial cell growth medium without its' supplement mix, hCECs were treated with xanthohumol dissolved in DMSO. Following another 24 hours of incubation with BrdU labeling solution, cells were fixed and incubated with anti-BrdU antibodies according to the manufacturer's recommendations. BrdU incorporation into the DNA of hCECs was quantified by absorbance measurement at 450 nm.

hCEC [5] = assay: Cell scratch assay (hCEC migration / wound healing in vitro); format: cell-based, Human
Procedure: To analyze hCEC migration in vitro, cells were cultured in corneal epithelial cell growth medium with supplement mix until confluence of the cells of a 6-well cell culture plate. Following an incubation period of 24 hours in cell culture medium without supplements, 5 linear scratches were performed in each well using a 200 µl pipette tip (Eppendorf AG, Hamburg, Germany). The hCECs were then incubated prospectively under treatment with xanthohumol or DMSO as a control for up to 72 hours. Reference images were acquired at the beginning of the incubation period using the phase contrast mode on an Axio Observer 7 (Carl Zeiss AG, Jena, Germany). Every 24 hours, follow-up images of 4-5 different scratch sections were acquired. The size of the wound area was analyzed using a semi-automated analysis tool in ImageJ 1.53a (National Institute of Health, Bethesda, MD, USA).

bovine corneas = assay: Corneal erosion assay on bovine corneas ex vivo; conditions: up to 72 hours, every 12 hours, compared to the DMSO-treated control group
Procedure: Furthermore, corneal epithelial cell wound healing was determined on bovine corneas ex vivo. Bovine globes were obtained from a local butchery following approval by the authority for waste management of animal carcasses (ID: DE 09 162 0066-219) and processed within 12 hours post-mortem. The bovine globes were washed in 10% w/v povidone-iodine for 5 minutes. A circular corneal epithelial erosion was created using an 8 mm trephine and a hockey knife (Katena Products Inc., Parsippany, NJ, USA). Subsequently, a sclerocorneal ring was excised with eye scissors (Katena Products Inc., Parsippany, NJ, USA) and transferred to a 60 mm cell culture plate. To acquire reference images of the corneal erosion, the wound area was stained with a 0.8 mg/ml fluorescein sodium solution and illuminated with blue light (approximate wavelength 490 nm). Images were acquired using a distance-fixed digital single lens reflex camera equipped with a macro lens (Canon Inc., Tokyo, Japan). Consequently, the sclerocorneal rings were incubated in Dulbecco's Modified Eagle's Medium (Bio&SELL GmbH, Feucht, Germany) supplemented with 50 IU penicillin/ml and 50 µg streptomycin/ml (Merck Millipore, Burlington, MA, USA) and xanthohumol or DMSO only. Follow-up images were acquired every 12 hours, the cell culture medium was renewed daily.

Row | Compound | viability at 100 µM [1] [%] | activity at 100 µM ([2]; H2O2 100 µM only, compared to the control group, read-out: DHE-123 fluorescence) [%] | viability at 1 µM ([3]; 1 µM) [%] | viability at 2.5 µM ([3]; 2.5 µM) [%] | viability at 5 µM ([3]; 5 µM, not significant) [%] | activity at 1 µM (hCEC [4]; 1 µM) [%] | activity at 2.5 µM (hCEC [4]; 2.5 µM) [%] | activity at 5 µM (hCEC [4]; 5 µM) [%] | wound area (hCEC [5]; 1 µM, 72 hours of incubation, control group 73 ± 9%) [%] | wound area (hCEC [5]; 2.5 µM, 72 hours of incubation, control group 73 ± 9%) [%] | wound area (hCEC [5]; 2.5 µM, after 48 hours, control group 76 ± 7%) [%] | speed of re-epithelialization (bovine corneas; 1 µM) | speed of re-epithelialization (bovine corneas; 2.5 µM) | viability at 1 µM [1] [%] | viability at 2.5 µM [1] [%] | activity at 1 µM ([2]; 1 µM xanthohumol with H2O2 100 µM, relative to the DMSO control group, read-out: DHR-123 fluorescence) [%] | activity at 2.5 µM ([2]; 2.5 µM xanthohumol with H2O2 100 µM, relative to the DMSO control group, read-out: DHR-123 fluorescence) [%]
1 | OO [H2O2, hydrogen peroxide, reference compound] | 79 ± 14 | 149 ± 9 |  |  |  |  |  |  |  |  |  |  |  |  |  |  | 
2 | COc1cc(O)c(CC=C(C)C)c(O)c1C(=O)/C=C/c1ccc(O)cc1 [xanthohumol, 1-[2,4-Dihydroxy-6-methoxy-3-(3-methyl-but-2-enyl)-phenyl]-3-(4-hydroxyphenyl)-propenon] |  |  | 144 ± 26 | 127 ± 11 | 121 ± 24 | 112 ± 26 | 107 ± 16 | 95 ± 8 | 63 ± 14 | 58 ± 18 | 66 ± 11 | did not show any significant difference | did not show any significant difference | 91 ± 11 | 96 ± 4 | 97 ± 16 | 95 ± 26
